According to article PMC6522976, “Novel sulphonamide benzoquinazolinones as dual EGFR/HER2 inhibitors, apoptosis inducers and radiosensitizers” (Journal of Enzyme Inhibition and Medicinal Chemistry, 2019):
“And” between values parts separate entries of the source, which are not always exact repeats. Equal entries are not always repeated. Where two headings read alike, the source gives them in different places.

How the values were obtained:
[1] = test system: MDA-MB-231 breast cancer cells; test: MTT cytotoxicity assay against MDA-MB-231; type: cell-based; settings: Homo sapiens, mean ± SE of three independent experiments
Procedure: Cells were cultured using Dulbecco’s Modified Eagle’s Medium (Invitrogen/Life Technologies) supplemented with 10% FBS (Hyclone), 10 µg/mL of insulin, and 1% penicillin–streptomycin. Cells were seeded in 96-well plate with cells density 1.2–1.8 × 10,000 cells/well, in a volume of 100 µL complete growth medium + 100 µL of the tested compound per well and the plate was incubated for 24 h before the MTT assay. […] IC50 was calculated according to the equation of Boltzmann sigmoidal concentration-response curve using Graph Pad Prism 5.

[2] = target: T1, EGFR (Homo sapiens, UniProt P00533); test: In vitro enzymatic activity assay, EGFR kinase kit; type: biochemical; settings: for % Inhibition of EGFR: concentration not given; for IC50: mean ± SE of three independent experiments
T1 construct: purchased Invitrogen PV3872
T1 sequence (P00533 25-1210): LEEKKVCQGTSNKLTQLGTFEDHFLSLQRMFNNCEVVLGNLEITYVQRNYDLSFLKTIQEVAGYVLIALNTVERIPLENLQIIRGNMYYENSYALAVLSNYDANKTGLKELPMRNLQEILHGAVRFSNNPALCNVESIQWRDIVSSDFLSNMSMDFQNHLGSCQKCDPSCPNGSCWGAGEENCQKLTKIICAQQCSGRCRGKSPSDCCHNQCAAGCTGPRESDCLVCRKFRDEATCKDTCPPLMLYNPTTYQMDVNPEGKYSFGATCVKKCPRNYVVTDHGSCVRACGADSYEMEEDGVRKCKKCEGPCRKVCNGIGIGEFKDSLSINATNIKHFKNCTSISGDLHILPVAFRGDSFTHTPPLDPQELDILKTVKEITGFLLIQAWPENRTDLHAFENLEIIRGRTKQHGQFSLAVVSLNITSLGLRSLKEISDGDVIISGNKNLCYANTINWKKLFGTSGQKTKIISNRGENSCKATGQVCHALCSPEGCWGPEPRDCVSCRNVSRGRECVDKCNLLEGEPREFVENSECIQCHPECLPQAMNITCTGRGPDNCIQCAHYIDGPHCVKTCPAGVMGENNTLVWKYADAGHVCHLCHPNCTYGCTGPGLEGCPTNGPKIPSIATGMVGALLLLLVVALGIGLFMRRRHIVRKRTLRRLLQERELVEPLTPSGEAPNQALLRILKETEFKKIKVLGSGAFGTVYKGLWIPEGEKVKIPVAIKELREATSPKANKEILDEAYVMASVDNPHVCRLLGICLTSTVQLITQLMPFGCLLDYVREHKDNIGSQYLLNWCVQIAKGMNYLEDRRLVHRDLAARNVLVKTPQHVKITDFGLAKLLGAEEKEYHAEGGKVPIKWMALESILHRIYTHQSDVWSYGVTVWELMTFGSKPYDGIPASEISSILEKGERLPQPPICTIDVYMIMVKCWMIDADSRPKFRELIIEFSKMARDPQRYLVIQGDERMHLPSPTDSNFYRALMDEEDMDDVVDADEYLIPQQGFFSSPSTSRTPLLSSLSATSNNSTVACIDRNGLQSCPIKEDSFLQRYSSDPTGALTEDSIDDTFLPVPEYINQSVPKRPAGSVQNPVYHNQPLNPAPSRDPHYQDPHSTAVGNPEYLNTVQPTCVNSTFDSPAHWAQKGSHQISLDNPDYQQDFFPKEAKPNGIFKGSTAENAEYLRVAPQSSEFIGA
Procedure: (§1) EGFR and HER2 kinase kits were purchased from Invitrogen. […] ATP solution and a kinase/peptide mixture were prepared. The plate was incubated for 1 h at room temperature. About […] of the developing solution was added to each well. The plate was incubated for 1 h and then read by ELISA Reader (PerkinElmer, USA). Every experiment was repeated three times. Data represented as means ± SE from three independent experiments. Curve fitting was performed using Graph Pad Prism 5.

[3] = target: T2, HER2 (Homo sapiens, UniProt P04626); test: In vitro enzymatic activity assay, HER2 kinase kit; type: biochemical; settings: mean ± SE of three independent experiments
T2 construct: purchased Invitrogen PV3366
T2 sequence (P04626 23-1255): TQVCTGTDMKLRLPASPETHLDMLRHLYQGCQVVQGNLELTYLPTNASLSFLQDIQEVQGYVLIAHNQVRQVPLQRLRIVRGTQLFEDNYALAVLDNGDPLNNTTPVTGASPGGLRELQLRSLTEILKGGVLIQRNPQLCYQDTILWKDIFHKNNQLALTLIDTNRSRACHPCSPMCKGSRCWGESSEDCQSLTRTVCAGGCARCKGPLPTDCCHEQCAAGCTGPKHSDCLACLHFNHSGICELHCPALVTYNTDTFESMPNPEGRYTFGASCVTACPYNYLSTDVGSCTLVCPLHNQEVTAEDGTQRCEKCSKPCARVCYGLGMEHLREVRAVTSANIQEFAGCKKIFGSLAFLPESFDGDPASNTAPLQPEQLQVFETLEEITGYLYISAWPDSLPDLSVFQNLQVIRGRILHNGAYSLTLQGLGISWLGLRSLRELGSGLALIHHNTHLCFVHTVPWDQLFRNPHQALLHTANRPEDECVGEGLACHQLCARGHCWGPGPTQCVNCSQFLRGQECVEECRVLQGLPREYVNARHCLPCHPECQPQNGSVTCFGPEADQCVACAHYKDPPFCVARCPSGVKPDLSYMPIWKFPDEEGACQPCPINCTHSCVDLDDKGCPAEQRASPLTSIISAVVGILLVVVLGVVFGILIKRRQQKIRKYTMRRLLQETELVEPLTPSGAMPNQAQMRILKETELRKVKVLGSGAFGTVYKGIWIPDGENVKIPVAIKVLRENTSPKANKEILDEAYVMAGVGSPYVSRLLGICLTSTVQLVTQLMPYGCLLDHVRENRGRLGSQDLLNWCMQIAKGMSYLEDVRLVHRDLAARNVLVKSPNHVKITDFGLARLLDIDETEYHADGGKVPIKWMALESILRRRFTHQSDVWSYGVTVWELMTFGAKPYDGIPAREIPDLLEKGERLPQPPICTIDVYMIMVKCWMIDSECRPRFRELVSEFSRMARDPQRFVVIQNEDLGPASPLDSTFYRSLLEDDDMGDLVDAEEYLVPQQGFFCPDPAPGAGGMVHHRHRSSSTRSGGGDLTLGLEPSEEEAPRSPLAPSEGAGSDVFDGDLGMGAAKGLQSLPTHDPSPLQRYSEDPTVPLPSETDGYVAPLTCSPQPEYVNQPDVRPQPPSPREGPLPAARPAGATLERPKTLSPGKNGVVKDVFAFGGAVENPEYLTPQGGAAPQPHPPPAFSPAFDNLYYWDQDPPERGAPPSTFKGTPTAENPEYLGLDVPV
Procedure: as §1

[4] = test system: caspase-3; test: Active caspase-3 level immunoassay; type: cell-based, human; settings: for Caspase 3: level of active caspase-3, control 53.2
Procedure: Cover and incubate for 2 h at room temperature. […] Incubate for 1 h then add 100 µL anti-rabbit IgG HRP working solution to each well and incubate for 30 min. The absorbance of each well was measured at 450 nm.

[5] = test system: MDA-MB-231 cell line; test: Cell cycle distribution analysis (propidium iodide, DNA cytometer); type: cell-based, human; settings: MDA-MB-231 cells treated at IC50; for %Apoptosis: PreG1, control 0.97; for %G2-M: control 6.44; for %S: control 23.04; for %G0-G1: control 69.55
Procedure: Control cells with known DNA content (peripheral blood mononuclear cells) were used as a reference point for determining the DNA index for the test samples. The cells were stained with propidium iodide stain following the procedure provided by the kit then incubated at room temperature for 5 min in the dark and run on the DNA cytometer. Cell cycle distribution was calculated using […] software (Becton Dickinson Immunocytometry Systems, San Jose, CA, USA).

[6] = MTT cytotoxicity against normal breast cells; type: cell-based; settings: human, 184A1 normal breast cells; MTT assay
Procedure: MDA-MB-231 breast cancer cells and 184A1 normal breast cells of American Type Culture Collection were obtained from VACSERA, Egypt. Cells were cultured using Dulbecco’s Modified Eagle’s Medium (Invitrogen/Life Technologies) supplemented with 10% FBS (Hyclone), 10 µg/mL of insulin, and 1% penicillin–streptomycin. Cells were seeded in 96-well plate with cells density 1.2–1.8 × 10,000 cells/well, in a volume of 100 µL complete growth medium + 100 µL of the tested compound per well and the plate was incubated for 24 h before the MTT assay. The cell layer was rinsed with 0.25% (w/v) trypsin, 0.53 mM EDTA solution, incubated for 2 h, then the absorbance was measured at a wavelength of 570 nm[30]. IC50 was calculated according to the equation of Boltzmann sigmoidal concentration-response curve using Graph Pad Prism 5.

[7] = test system: Bax; test: Bax expression level; type: cell-based, human; settings: MDA-MB-231 cells, compared to the control cells
[8] = test system: Bcl2; test: Bcl2 expression level; type: cell-based, human; settings: MDA-MB-231 cells, compared to the control cells
[9] = test system: MDA-MB-231 cells; test: Radiosensitizing activity (MTT with 8 Gy gamma irradiation); type: cell-based; settings: Homo sapiens, light or radiation study
Procedure: Irradiation was performed at the National Center for Radiation Research and Technology (NCRRT), Egyptian Atomic Energy Authority (EAEA), using gamma cell-40 (^137Cs) source. Compound 10 was selected to be re-evaluated for the in vitro antiproliferative activity in combination with γ-irradiation using MTT assay. Cells were incubated with compound 10 in molar concentrations of 0.01, 0.1, 1.0, and 10 µM. After 2 h, cells were subjected to a single dose of 8 Gy of γ-radiation at a dose rate of 0.758 rad/s for 17.73 min, and then the anti-proliferative activity was measured 48 h after irradiation. The IC50 of the tested compounds was calculated after irradiation.

Row | SMILES | IC50 [1] | % Inhibition of EGFR [2] | melting point | IC50 [2] | IC50 [3] | further results
1 | Cc1cc(NC(=O)CSc2nc3cc4ccccc4cc3c(=O)n2-c2ccc(S(N)(=O)=O)cc2)no1 [Compound 5, N-(5-Methylisoxazol-3-yl)-2-[(4-oxo-3–(4-sulfamoylphenyl)-3,4-dihydrobenzo[g]quinazolin-2-yl)thio]acetamide] | 2.47 ± 0.08 µM | 42.00% | 292.4 °C |  |  | 
2 | Cc1cc([N+](=O)[O-])ccc1NC(=O)CSc1nc2cc3ccccc3cc2c(=O)n1-c1ccc(S(N)(=O)=O)cc1 [Compound 13, N-(2-Methyl-4-nitrophenyl)-2-[(4-oxo-3-(4-sulfamoylphenyl)-3,4-dihydrobenzo[g]quinazolin-2-yl)thio]acetamide] | 0.4 ± 0.01 µM |  | 293.8 °C | 10.2 ± 0.1 µM | 13.01 ± 0.09 µM | 
3 | C#Cc1cccc(Nc2ncnc3cc(OCCOC)c(OCCOC)cc23)c1 [Erlotinib, N-(3-ethynylphenyl)-6,7-bis(2-methoxyethoxy)quinazolin-4-amine, reference compound] |  |  |  |  |  | Caspase 3 [4]: 480.1 pg/mL; %Apoptosis [5]: 17.33%; %G2-M [5]: 24.81%; %S [5]: 16.31%; %G0-G1 [5]: 41.55%; IC50 at 24 h [6]: 102 ± 3.55 µM
4 | Cc1cccc(C)c1NC(=O)CSc1nc2cc3ccccc3cc2c(=O)n1-c1ccc(S(N)(=O)=O)cc1 [Compound 12, N-(2,6-Dimethylphenyl)-2-[(4-oxo-3-(4-sulfamoylphenyl)-3,4-dihydrobenzo[g]quinazolin-2-yl)thio]acetamide] | 2.19 ± 0.09 µM | 41.86% | 300.5 °C |  |  | 
5 | CCOc1ccc2nc(NC(=O)CSc3nc4cc5ccccc5cc4c(=O)n3-c3ccc(S(N)(=O)=O)cc3)sc2c1 [Compound 7, N-(6-Ethoxybenzo[d]thiazol-2-yl)-2-[(4-oxo-3-(4-sulfamoylphenyl)-3,4-dihydrobenzo[g]quinazolin-2-yl)thio]acetamide] | 26.5 ± 2.14 µM | 25.98% | 255.9 °C |  |  | 
6 | NS(=O)(=O)c1ccc(-n2c(SCC(=O)Nc3ccc4c(c3)C(=O)c3ccccc3C4=O)nc3cc4ccccc4cc3c2=O)cc1 [Compound 18, N-(9,10-Dioxo-9,10-dihydroanthracen-2-yl)-2-[(4-oxo-3-(4-sulfamoylphenyl)-3,4-dihydrobenzo[g]quinazolin-2-yl)thio]acetamide] | 0.26 ± 0.01 µM |  | 256.7 °C | 9.66 ± 0.08 µM | 3.2 ± 0.04 µM | 
7 | NS(=O)(=O)c1ccc(-n2c(SCC(=O)Nc3cccc4ccccc34)nc3cc4ccccc4cc3c2=O)cc1 [Compound 17, N-(Naphthalene-1-yl)-2-[(4-oxo-3-(4-sulfamoylphenyl)-3,4-dihydrobenzo[g]quinazolin-2-yl)thio]acetamide] | 161 ± 4.69 µM | 8.71% | 241.6 °C |  |  | 
8 | NS(=O)(=O)c1ccc(-n2c(SCC(=O)Nc3c[nH]c(=O)[nH]c3=O)nc3cc4ccccc4cc3c2=O)cc1 [Compound 14, N-(2,4-Dioxo-1,2,3,4-tetrahydropyrimidin-5-yl)-2-[(4-oxo-3-(4-sulfamoylphenyl)-3,4-dihydrobenzo[g]quinazolin-2-yl)thio]acetamide] | 0.37 ± 0.01 µM |  | 280 °C | 4.11 ± 0.02 µM | 26.03 ± 0.22 µM | 
9 | NS(=O)(=O)c1ccc(-n2c(SCC(=O)Nc3cnccn3)nc3cc4ccccc4cc3c2=O)cc1 [Compound 16, 2-[(4-Oxo-3-(4-sulfamoylphenyl)-3,4-dihydrobenzo[g]quinazolin-2-yl)thio]-N-(pyrazin-2-yl)acetamide] | 0.32 ± 0.01 µM | 59.66% | 205.7 °C |  |  | 
10 | Cn1c(NC(=O)CSc2nc3cc4ccccc4cc3c(=O)n2-c2ccc(S(N)(=O)=O)cc2)cc(=O)n(C)c1=O [Compound 15, N-(1,3-Dimethyl-2,6-dioxo-1,2,3,6-tetrahydropyrimidin-4-yl)-2-[(4-oxo-3-(4-sulfamoylphenyl)-3,4-dihydrobenzo[g]quinazolin-2-yl)thio]acetamide] | 21.8 ± 1.63 µM | 21.45% | 307.7 °C |  |  | 
11 | NS(=O)(=O)c1ccc(-n2c(SCC(=O)Nc3nnc(C(F)(F)F)s3)nc3cc4ccccc4cc3c2=O)cc1 [Compound 9, 2-[(4-Oxo-3-(4-sulfamoylphenyl)-3,4-dihydrobenzo[g]quinazolin-2-yl)thio]-N-(5-(trifluoromethyl)-1,3,4-thiadiazol-2-yl)acetamide] | 2.19 ± 0.05 µM | 52.49% | 257 °C |  |  | 
12 | Cc1ccc(NC(=O)CSc2nc3cc4ccccc4cc3c(=O)n2-c2ccc(S(N)(=O)=O)cc2)cc1C [Compound 10, N-(3,4-Dimethylphenyl)-2-[(4-oxo-3-(4-sulfamoylphenyl)-3,4-dihydrobenzo[g]quinazolin-2-yl)thio]acetamide] | 0.31 ± 0.01 µM |  | 232.8 °C | 3.9 ± 0.03 µM | 5.4 ± 0.12 µM | Caspase 3 Folds ([4]; increase compared to the control cells): 10 Folds and 10.25 Folds; Caspase 3 [4]: 545.7 pg/mL; Bax (Folds) [7]: 9 Folds and 9.372 Folds; Bcl2 (Folds) [8]: 0.14 Folds and 0.1379 Folds; %Apoptosis [5]: 14.84%; %G2-M [5]: 17.52%; %S [5]: 18.28%; %G0-G1 [5]: 49.36%; IC50 at 24 h [6]: 84.5 ± 0.72 µM; IC50 ([9]; no irradiation, read-out: IC50 before Irradiation): 0.31 ± 0.01 µM; IC50 ([9]; single dose of 8 Gy γ-radiation, measured 48 h after irradiation, read-out: IC50 after Irradiation): 0.22 ± 0.03 µM
13 | NS(=O)(=O)c1ccc(-n2c(SCC(=O)Nc3nccs3)nc3cc4ccccc4cc3c2=O)cc1 [Compound 6, 2-[(4-Oxo-3-(4-sulfamoylphenyl)-3,4-dihydrobenzo[g]quinazolin-2-yl)thio]-N-(thiazol-2-yl)acetamide] | 23.2 ± 1.88 µM | 18.13% | 304 °C |  |  | 
14 | Cc1ccc(C)c(NC(=O)CSc2nc3cc4ccccc4cc3c(=O)n2-c2ccc(S(N)(=O)=O)cc2)c1 [Compound 11, N-(2,5-Dimethylphenyl)-2-[(4-oxo-3-(4-sulfamoylphenyl)-3,4-dihydrobenzo[g]quinazolin-2-yl)thio]acetamide] | 0.28 ± 0.01 µM |  | 279.3 °C | 2.55 ± 0.17 µM | 31.31 ± 0.31 µM | 
15 | NS(=O)(=O)c1ccc(-n2c(SCC(=O)Nc3nc4ccc([N+](=O)[O-])cc4s3)nc3cc4ccccc4cc3c2=O)cc1 [Compound 8, N-(6-Nitrobenzo[d]thiazol-2-yl)-2-[(4-oxo-3-(4-sulfamoylphenyl)-3,4-dihydrobenzo[g]quinazolin-2-yl)thio]acetamide] | 2.91 ± 0.03 µM | 54.61% | 278.3 °C |  |  | 
